Source: PMC3914206
“And” between values parts separate entries of the source, which are not always exact repeats. Equal values may be shown once.

Tests used:
panel of 442 kinases = molecular target: T1, panel of 442 kinases (Homo sapiens, UniProt Q5S007); type: binding; conditions: Compound Concentration 10 µM
T1 construct: purchased KINOMEscan
From the text: We assessed the selectivity of members of this scaffold using the KINOMEscan methodology across a near comprehensive panel of 442 kinases [[18,27]].

ERK5 [1] = molecular target: T2, ERK5 (Homo sapiens, UniProt Q13164); test: ERK5 autophosphorylation assay (EGF-stimulated, mobility shift immunoblot); type: cell-based; design: endogenous in cells; host or cells: HeLa; conditions: inhibition of EGF-stimulated autophosphorylation of ERK5 in HeLa cells; read-out: Cellular EC50 (ERK5)
From the text: Proteins from total cell lysates were resolved by 6% sodium dodecyl sulfate (SDS)-poly-acrylamide gel electrophoresis (PAGE), transferred to nitrocellulose membrane, blocked in 5% nonfat milk, and blotted with anti-ERK5 antibody.

LRRK2[A2016T] = LRRK2[A2016T] (Homo sapiens, UniProt Q5S007, A2016T); test: LRRK2 cellular assay, Ser910/Ser935 phosphorylation in stably transfected HEK293 cells; conditions: drug-resistant mutant, up to 3 μM
Experimental: (§1) Our cellular assay for LRRK2 measures the ability of compounds to inhibit LRRK2-dependent phosphorylation of Ser910 and Ser935 in stably transformed HEK293 cells as described previously [[21,25]].
(§2) As there are no validated direct phosphorylation substrates of LRRK2, we monitored phosphorylation of Ser910 and Ser935, two residues whose phosphorylation is known to be dependent upon LRRK2 kinase activity [25]
(§3) Cell culture, treatments and cell lysis. HEK293 was cultured in DMEM (Dulbecco's Modified Eagle's medium) supplemented with 10% FBS (fetal bovine serum), 2 mM glutamine and 1× penicillin/streptomycin solution. […] Following treatment, cells were washed once with phosphate buffered saline (PBS) buffer and lysed with lysis buffer (50 mM Tris/HCl, pH 7.5, 1 mM EGTA, 1 mM EDTA, 1 mM sodium orthovanadate, 10 mM sodium β-glycerophosphate, 50 mM NaF, 5 mM sodium pyrophosphate, 0.27 M sucrose, 1 mM benzamidine, 2 mM phenylmethanesulphonylfluoride (PMSF) and 1% Triton X-100). When not used immediately, all lysate supernatants were snap-frozen in liquid nitrogen and stored at −80 °C until use. Protein concentrations were determined following centrifugation of the lysate at 16,000× g at 4 °C for 20 min using the Bradford method with BSA as the standard. Transient transfection of HEK 293 cells was performed using the polyethyleneimine (PEI) method [35]. […]

ERK5 [2] = molecular target: T2, ERK5; test: ERK5 kinase activity in vitro assay (32P-ATP, PIMtide substrate); type: biochemical; design: hexahistidine (His6) (N); made in house; host or cells: Spodoptera frugiperda 21 cells (baculovirus, Bac-to-Bac); conditions: in vitro assay, recombinant active ERK5; read-out: Enzymatic IC50 (ERK5)
Experimental: pFastBAC vector encoding N-terminal hexahistidine-tagged human ERK5 and HA-tagged human MEK5-DD (constitutively active) were used to generate recombinant baculovirus using the Bac-to-Bac system (Invitrogen). […] His-tagged ERK5 was purified as described for His-tagged BRSK1[33], using 5 mL Ni-NTA-agarose resin (Qiagen) followed by gel filtration chromatography on Superdex 200HR column on an AKTA system (GE Healthcare).
Assays were carried out for 20 min at 30 °C, terminated by applying the reaction mixture onto p81 paper and the incorporated radioactivity measured as described previously.

[3] = molecular target: T3, selected panels of kinases in HeLa and PC3 cell lysates (Homo sapiens, UniProt P78527); test: KiNativ chemical proteomics profiling in HeLa and PC3 cell lysates; type: binding; conditions: 10 uM, labeling site ATP
T3 construct: endogenous in cells; host or cells: HeLa and PC3 cell lysates

[4] = molecular target: T4, selected panels of kinases in HeLa and PC3 cell lysates (Homo sapiens, UniProt Q09013); test: as above; type: binding; conditions: 10 uM; proteome HEL; peptide DIkPDNILLDR; labeling site Lys2
T4 construct: endogenous in cells; host or cells: HeLa and PC3 cell lysates

[5] = molecular target: T5, selected panels of kinases in HeLa and PC3 cell lysates (Homo sapiens, UniProt Q15131); test: as above; type: binding; conditions: 10 uM; proteome PC3; peptide DLkVSNLLMTDK; labeling site Lys2
T5 construct: endogenous in cells; host or cells: HeLa and PC3 cell lysates

[6] = molecular target: T6, selected panels of kinases in HeLa and PC3 cell lysates (Homo sapiens, UniProt Q15759); test: as above; type: binding; conditions: 10 uM; proteome PC3; peptide QELNkTVWEVPQR; labeling site Other
T6 construct: endogenous in cells; host or cells: HeLa and PC3 cell lysates

endogenous LRRK2 = type: cell-based; conditions: EBV immortalized human lymphoblastoid cells, 90 min
[7] = Pharmacokinetics after intravenous and oral delivery in mice; type: in vivo
Experimental: The pharmacokinetic properties of 26 were also evaluated following intravenous and oral delivery in mice.

wild-type LRRK2 = wild-type LRRK2 (Homo sapiens, UniProt Q5S007); test: LRRK2 cellular assay, Ser910/Ser935 phosphorylation in stably transfected HEK293 cells; conditions: up to 3 μM, 90 min
Experimental: as §1, §2, §3

T3 sequence (P78527 whole entry): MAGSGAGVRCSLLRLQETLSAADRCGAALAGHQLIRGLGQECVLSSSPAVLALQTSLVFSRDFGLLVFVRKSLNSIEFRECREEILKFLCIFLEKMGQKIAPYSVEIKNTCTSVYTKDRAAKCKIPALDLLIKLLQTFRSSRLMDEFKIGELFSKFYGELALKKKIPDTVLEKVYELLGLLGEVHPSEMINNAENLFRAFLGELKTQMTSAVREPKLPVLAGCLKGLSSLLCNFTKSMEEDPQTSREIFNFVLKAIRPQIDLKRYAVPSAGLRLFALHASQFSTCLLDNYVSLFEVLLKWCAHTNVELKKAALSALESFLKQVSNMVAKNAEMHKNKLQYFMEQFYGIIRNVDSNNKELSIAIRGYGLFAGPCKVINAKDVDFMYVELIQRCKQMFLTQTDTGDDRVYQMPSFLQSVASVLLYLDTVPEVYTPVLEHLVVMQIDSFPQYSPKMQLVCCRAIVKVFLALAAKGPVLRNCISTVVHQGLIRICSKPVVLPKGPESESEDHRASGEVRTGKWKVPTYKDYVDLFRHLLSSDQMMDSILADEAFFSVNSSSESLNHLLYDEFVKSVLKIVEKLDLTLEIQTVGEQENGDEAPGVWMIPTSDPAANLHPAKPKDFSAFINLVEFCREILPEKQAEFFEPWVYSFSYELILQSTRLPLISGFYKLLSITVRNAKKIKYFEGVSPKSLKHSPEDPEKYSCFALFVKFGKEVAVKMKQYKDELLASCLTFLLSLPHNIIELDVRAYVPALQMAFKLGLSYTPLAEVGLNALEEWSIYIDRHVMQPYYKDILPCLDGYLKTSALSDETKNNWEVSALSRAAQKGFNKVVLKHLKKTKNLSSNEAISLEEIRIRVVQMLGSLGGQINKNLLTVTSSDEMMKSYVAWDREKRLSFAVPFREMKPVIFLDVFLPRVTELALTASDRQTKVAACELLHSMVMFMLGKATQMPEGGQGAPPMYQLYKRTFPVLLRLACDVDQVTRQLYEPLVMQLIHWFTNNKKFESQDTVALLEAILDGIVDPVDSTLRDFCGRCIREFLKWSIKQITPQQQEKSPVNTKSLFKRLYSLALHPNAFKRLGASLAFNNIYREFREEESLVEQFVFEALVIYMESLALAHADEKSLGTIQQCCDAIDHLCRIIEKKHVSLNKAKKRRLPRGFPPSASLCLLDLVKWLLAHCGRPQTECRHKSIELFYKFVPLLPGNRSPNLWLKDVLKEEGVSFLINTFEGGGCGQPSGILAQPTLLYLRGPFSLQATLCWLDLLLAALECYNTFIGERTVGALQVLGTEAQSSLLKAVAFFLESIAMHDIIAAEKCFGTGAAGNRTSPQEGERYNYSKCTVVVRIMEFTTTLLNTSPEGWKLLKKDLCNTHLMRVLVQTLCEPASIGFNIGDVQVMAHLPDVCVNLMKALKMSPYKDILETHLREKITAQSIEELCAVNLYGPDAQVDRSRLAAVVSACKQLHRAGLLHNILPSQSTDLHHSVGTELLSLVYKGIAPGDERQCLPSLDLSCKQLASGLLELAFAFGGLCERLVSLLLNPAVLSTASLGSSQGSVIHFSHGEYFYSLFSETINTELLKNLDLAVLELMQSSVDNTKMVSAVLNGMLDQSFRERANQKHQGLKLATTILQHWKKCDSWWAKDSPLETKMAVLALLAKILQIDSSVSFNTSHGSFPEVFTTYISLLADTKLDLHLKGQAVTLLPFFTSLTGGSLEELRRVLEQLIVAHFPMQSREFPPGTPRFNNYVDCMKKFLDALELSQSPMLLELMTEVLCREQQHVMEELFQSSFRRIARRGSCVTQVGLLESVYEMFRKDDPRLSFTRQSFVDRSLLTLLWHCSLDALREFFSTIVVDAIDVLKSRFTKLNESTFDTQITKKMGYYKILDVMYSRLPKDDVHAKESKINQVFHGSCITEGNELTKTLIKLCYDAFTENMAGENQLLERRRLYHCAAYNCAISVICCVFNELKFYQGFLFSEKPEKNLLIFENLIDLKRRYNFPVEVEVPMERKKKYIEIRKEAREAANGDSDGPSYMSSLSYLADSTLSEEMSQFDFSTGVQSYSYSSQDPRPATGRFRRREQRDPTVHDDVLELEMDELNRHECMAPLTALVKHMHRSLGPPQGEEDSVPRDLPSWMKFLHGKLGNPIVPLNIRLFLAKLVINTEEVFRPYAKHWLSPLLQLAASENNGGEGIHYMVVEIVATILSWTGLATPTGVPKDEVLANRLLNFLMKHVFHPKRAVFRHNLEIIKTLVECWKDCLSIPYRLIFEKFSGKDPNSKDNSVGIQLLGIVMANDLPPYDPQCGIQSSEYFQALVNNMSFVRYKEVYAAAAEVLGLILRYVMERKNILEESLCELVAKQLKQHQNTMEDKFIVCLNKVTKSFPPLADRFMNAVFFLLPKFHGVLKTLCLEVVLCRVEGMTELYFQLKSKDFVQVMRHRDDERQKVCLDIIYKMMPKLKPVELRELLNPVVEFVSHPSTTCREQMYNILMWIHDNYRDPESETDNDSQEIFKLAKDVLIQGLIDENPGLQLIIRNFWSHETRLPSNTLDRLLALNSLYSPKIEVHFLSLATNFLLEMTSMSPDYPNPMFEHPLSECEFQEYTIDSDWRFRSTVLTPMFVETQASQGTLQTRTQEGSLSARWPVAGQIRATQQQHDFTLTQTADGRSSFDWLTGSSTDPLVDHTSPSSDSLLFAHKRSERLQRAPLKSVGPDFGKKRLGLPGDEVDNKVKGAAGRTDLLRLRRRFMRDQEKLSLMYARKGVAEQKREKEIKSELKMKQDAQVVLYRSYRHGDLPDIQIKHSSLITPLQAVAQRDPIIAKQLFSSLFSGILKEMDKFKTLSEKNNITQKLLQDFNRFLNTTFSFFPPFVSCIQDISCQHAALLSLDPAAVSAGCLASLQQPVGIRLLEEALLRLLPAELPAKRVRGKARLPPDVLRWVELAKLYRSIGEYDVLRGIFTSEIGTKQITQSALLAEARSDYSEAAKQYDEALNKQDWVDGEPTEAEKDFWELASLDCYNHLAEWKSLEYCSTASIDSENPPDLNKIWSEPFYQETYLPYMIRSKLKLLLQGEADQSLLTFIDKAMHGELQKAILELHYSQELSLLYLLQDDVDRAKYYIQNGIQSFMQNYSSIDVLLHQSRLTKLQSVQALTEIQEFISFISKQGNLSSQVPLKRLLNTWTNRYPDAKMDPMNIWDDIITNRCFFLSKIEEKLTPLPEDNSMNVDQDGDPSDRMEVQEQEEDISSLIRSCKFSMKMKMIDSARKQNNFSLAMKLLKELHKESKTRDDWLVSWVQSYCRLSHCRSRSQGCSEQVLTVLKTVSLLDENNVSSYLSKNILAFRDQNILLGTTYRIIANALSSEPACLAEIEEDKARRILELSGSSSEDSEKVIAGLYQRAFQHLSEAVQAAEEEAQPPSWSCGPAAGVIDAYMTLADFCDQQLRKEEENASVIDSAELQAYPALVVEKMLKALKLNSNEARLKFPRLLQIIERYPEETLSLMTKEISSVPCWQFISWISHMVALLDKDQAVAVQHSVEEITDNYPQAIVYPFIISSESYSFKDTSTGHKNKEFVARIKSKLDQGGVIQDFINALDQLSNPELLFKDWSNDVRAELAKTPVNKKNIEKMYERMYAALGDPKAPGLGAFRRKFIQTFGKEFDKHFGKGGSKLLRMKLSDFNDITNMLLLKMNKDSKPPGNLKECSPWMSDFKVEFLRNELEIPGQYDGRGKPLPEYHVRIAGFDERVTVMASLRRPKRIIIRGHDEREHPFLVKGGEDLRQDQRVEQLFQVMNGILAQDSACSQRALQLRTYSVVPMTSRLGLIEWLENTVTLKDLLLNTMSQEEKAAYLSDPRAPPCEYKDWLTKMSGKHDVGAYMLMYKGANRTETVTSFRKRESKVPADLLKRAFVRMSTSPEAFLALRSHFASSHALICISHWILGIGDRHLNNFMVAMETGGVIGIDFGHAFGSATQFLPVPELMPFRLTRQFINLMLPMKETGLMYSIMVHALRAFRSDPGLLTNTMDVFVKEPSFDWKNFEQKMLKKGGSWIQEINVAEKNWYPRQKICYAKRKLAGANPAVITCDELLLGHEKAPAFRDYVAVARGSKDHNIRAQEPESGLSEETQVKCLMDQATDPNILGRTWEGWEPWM
T2 sequence (Q13164 whole entry): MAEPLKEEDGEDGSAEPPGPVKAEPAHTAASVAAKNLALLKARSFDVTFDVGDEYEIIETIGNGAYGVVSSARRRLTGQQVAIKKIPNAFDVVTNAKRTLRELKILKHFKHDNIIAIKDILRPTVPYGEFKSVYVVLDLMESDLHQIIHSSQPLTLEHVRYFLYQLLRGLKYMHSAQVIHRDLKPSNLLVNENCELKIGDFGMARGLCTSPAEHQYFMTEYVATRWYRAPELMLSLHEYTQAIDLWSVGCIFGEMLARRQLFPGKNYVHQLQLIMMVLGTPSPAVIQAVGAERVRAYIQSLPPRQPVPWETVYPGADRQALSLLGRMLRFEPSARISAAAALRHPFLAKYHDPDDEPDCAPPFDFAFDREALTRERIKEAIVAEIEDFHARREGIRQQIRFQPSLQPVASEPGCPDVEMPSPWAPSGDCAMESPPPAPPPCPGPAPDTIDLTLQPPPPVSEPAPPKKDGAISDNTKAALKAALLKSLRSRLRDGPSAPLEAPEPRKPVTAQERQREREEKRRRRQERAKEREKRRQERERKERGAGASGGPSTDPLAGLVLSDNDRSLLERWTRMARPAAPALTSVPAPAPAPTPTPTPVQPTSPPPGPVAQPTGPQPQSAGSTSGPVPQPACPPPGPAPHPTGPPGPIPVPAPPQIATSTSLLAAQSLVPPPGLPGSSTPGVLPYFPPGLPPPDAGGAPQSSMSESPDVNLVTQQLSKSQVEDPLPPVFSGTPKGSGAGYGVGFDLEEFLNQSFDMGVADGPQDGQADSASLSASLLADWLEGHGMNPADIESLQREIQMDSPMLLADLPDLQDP

## COc1cc(C(=O)N2CCC(N3CCN(C)CC3)CC2)ccc1Nc1ncc2c(n1)N(C)c1ccccc1C(=O)N2C [15 (LRRK2-IN-1)]
Panel of 442 kinases
  KINOMEscan: LRRK2: 0

## COc1cc(C(=O)N2CCC(N3CCN(C)CC3)CC2)ccc1Nc1ncc2c(n1)N1CCc3cccc(c31)C(=O)N2C [Compound 24]
ERK5 [1]
  EC50: 0.26 ± 0.04 µM
LRRK2[A2016T]
  effect on phosphorylation of Ser910 and Ser935: no effect
ERK5 [2]
  IC50: 0.199 ± 0.012 µM

## COc1cc(C(=O)N2CCC(N3CCN(C)CC3)CC2)ccc1Nc1ncc2c(n1)N(C1CCCC1)c1ccccc1C(=O)N2C [Compound 25, 11-cyclopentyl-2-((2-methoxy-4-(4-(4-methylpiperazin-1-yl)piperidine-1-carbonyl)phenyl)amino)-5-methyl-5H-benzo[e]pyrimido[5,4-b][1,4]diazepin-6(11H)-one]
Panel of 442 kinases
  KINOMEscan: LRRK2: 28
[3]; proteome HEL, peptide […]k[…]
  % Inhibiton, DNAPK: 2.3%
[3]; proteome PC3, peptide […]k[…]
  % Inhibiton, DNAPK: -16.3%
[3]; proteome PC3, peptide k[…]
  % Inhibiton, DNAPK: -9.9%
[4]
  % Inhibiton, DMPK1: 10.0%
[5]
  % Inhibiton, CDK10: -11.0%
[6]
  % Inhibiton, p38b: 14.5%
ERK5 [1]
  EC50: 0.08 ± 0.02 µM
ERK5 [2]
  IC50: 0.082 ± 0.009 µM

## CCOc1cc(C(=O)N2CCC(N3CCN(C)CC3)CC2)ccc1Nc1ncc2c(n1)N(C1CCCC1)c1ccccc1C(=O)N2C [Compound 26]
Endogenous LRRK2
  effect on phosphorylation of endogenous LRRK2 at Ser910 and Ser935: did not show inhibitory effects
[7]; IV, 1 mg/kg
  AUC0−∞: 1743.83 ng·h/mL
  CL: 8.64 mL/min/kg
  Cmax: 439 ng/mL
  T1/2: 8.2 h
  Vss: 4.67 L/kg
[7]; PO, 10 mg/kg
  AUC0−∞: 15745 ng·h/mL and 15745.48 ng·h/mL
  Cmax: 1142.77 ng/mL
  F (oral bioavailability): 90%
  Tmax: 4.0 H
[3]; proteome HEL, peptide […]k[…]
  % Inhibiton, DNAPK: 2.3%
[3]; proteome PC3, peptide […]k[…]
  % Inhibiton, DNAPK: 10.1%
[3]; proteome PC3, peptide k[…]
  % Inhibiton, DNAPK: 23.8%
[4]
  % Inhibiton, DMPK1: 29.4%
[5]
  % Inhibiton, CDK10: 10.4%
[6]
  % Inhibiton, p38b: 14.6%
wild-type LRRK2
  inhibitory effect against LRRK2 in cells (Ser910/Ser935 phosphorylation): did not show any inhibitory effect
